The values that follow come from patent publication US20090298793A1, “Acylgycerophospholipids for treating symptoms concomitant with cancer” (KTB TUMORFORSCHUNGSGESELLSCHAFT MBH, priority 2005, published 2009).

Assay [1] deals with human kidney cell carcinoma RXF 486. Description: Course of weight of naked mice bearing cachexia-inducing human kidney cell carcinoma RXF 486. The note with it: 33 mg/kg DPPC p.o., days 0-4, 7-11, 14, 17, 18; liposomal dispersion in saline; n=3; p <0.001. The class given is in vivo. An excerpt: Tumors from the human kidney cell carcinoma RXF 486 have a string cachexia-inducing effect.
Female athymic BALB/c nude mice (nu/nu) (Charles River, Frederick, Md.) at the age of 8 to 10 weeks were employed. […] They were allowed water and rodent food (Altromin, Lage, Germany) ad libitum.
Fragments of 3-5 mm (in diameter) of the human kidney cell carcinoma RXF 486 were subcutaneously grafted between the animals' front and rear flanks. The therapy experiments were begun when the tumors had reached a size of 30-40 mm^3.
For the therapy, synthetic PL (dipalmitoylphosphatidylcholine, DPPC; Sygena, Liestal, Switzerland) was employed. It was dispersed in 0.9% (w/v) saline in a concentration of 33 mg/ml (ultrasonic dispersion in 50 ml Falcon tube) to provide a heterogeneous liposomal dispersion. For the oral administration (p.o.), the dispersion was adjusted to 3.3 mg/ml with saline.
On experiment days 0-4, 7-11, 14, 17 and 18, the animals were treated with 33 mg each per kg of body weight of DPPC p.o. by a stomach tube (application volume: 10 ml/kg). The control animals only obtained saline. The weight of the animals was determined on days 0, 2, 4, 7, 9, 11, 14, 18, 21, 25, 26 and 29 and is shown in FIG. 1 in % of the weight on day 0.

The test system of assay [2] is tumor cells. The note with it: Nagami et al., Bioorganic & Medicinal Chemistry Letters 16: 782-785 (2006); cited from earlier work.

In the case of `CCCCCCCCCCCCCCCC(=O)OC[C@H](COP(=O)([O-])OCC[N+](C)(C)C)OC(=O)CCCCCCCCCCCCCCC` [DPPC, dipalmitoylphosphatidylcholine], the “weight loss as compared to an untreated control group” value in assay [1] was “virtually stopped”. The “apoptosis and necrosis in tumor cells” value in assay [2] is on record as “does not show such an effect”.

For the compound `CCCCCCCCCCCCCC(=O)OC[C@H](COP(=O)([O-])OCC[N+](C)(C)C)OC(=O)CCCCCCCCCCCCC` [dimyristoyl-PC, reference compound], in assay [2], the “apoptosis and necrosis in tumor cells” value was “produces apoptosis and necrosis”.
